Experiments:
[1] = Cytotoxicity assay (CCK-8) on replicon cells; assay type: cell-based; details: human, HCV 1b replicon cells (Huh-7.5.1); 50% cytotoxic concentration; CCK-8, HCV 1b replicon cells, 72 h
[2] = tested on: HCV 1b replicon cells (Huh-7.5.1); assay: Anti-HCV assay, HCV 1b replicon cells with luciferase reporter; assay type: cell-based, hepatitis C virus (HCV) subtype 1b; details: Hepatitis C virus, Huh-7.5.1, 72 h, inhibitory rate at 5 μM
[3] = biological target: T1, C-terminal His-tagged NS5BΔ21 from HCV 1b subtype (Hepatitis C virus genotype 1b, UniProt Q913V3); assay: Thermal shift assay with NS5B protein; assay type: binding
T1 construct: C-terminal His-tagged NS5BΔ21 from HCV 1b subtype; His tag (C); made in house
Text: The stability of a protein system is enhanced after binding to its specific ligand, leading to an increase in the melting temperature (Tm). Taking advantage of this feature, the thermal shift assay was extensively used to assess the binding of small molecules to the protein targets. The metal ion chelators were thought to exert an anti-HCV effect by chelating with Mg^2+ in the catalytic center of NS5B [34, 36, 38]. […] C-terminal His-tagged NS5BΔ21 from HCV 1b subtype was used as the protein in the experiment. Compared with the blank control (DMSO), the fluorescence–temperature curves of the NS5B system in the presence of 21e (Figure 3A) and 21k (Figure 3B) at 50 μM, 100 μM, and 200 μM all shifted to the right of the axis. The Tm values of 21e and 21k increased in a concentration-dependent manner, presenting higher values than that of the blank control (Tm = 63.5 °C) at all tested concentrations.
C-terminal His-tagged NS5BΔ21 from HCV 1b subtype was expressed from pET28a HCR6 plasmid in our lab and dissolved in a Tris-HCl buffer (20 mm, pH 7.2) containing 150 mm NaCl. Then, 1 μL of corresponding concentration (1 mm, 2 mm, or 4 mm) of the test compound in DMSO or 1 μL DMSO alone was added to each well of a 96-well PCR plate (Shanghai Sangon Biotech Co., Ltd., Shanghai, China). Subsequently, 19 μL of pre-prepared PBS solution containing 10 mm MgCl2, 10× SYPRO® orange protein gel stain (Sigma-Aldrich, St. Louis, MO, USA), and 5 μM NS5B protein was added to each well and mixed. The final concentration of DMSO in each well was 5%. The PCR plate was covered with a high-permeable film, incubated at room temperature for 10 min, and then placed on the Applied Biosystems^TM 7500 Real-Time PCR System (Thermo Fisher Scientific, Waltham, MA, USA). The temperature was increased to 90 °C gradually, and the change curve of fluorescence intensity versus system temperature was recorded.

[4] = tested on: HCV 1b replicon cells (Huh-7.5.1); assay: Anti-HCV assay, HCV 1b replicon cells with luciferase reporter; assay type: cell-based, hepatitis C virus (HCV) subtype 1b; details: Hepatitis C virus, HCV 1b replicon cells

T1 sequence (Q913V3 2420-2989, stated change not applied): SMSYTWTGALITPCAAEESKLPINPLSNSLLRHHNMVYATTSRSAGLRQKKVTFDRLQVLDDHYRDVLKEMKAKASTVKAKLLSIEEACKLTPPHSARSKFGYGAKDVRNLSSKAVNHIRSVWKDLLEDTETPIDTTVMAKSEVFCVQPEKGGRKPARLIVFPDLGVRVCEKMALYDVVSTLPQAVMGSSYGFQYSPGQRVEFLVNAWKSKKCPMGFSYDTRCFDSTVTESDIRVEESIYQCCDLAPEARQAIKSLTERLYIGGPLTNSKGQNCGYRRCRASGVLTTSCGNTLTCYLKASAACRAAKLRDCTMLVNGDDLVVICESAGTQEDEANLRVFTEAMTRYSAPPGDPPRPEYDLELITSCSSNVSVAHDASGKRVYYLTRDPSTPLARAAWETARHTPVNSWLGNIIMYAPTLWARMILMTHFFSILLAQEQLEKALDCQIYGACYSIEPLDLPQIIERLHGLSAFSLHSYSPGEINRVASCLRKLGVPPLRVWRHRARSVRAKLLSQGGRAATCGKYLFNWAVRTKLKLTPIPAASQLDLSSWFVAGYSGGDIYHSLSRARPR

O=c1[nH]c2cc(-c3ccccc3)ccc2c(=O)n1O [21e, 3-Hydroxy-7-phenylquinazoline-2,4(1H,3H)-dione]
CC50 at 72 h [1]: 5.4 ± 0.6 µM
inhibition at 5 µM [2]: 39.5%
ΔTm at 50 µM ([3]; compound 50 μM, Tm of compound group minus Tm of blank control, mean ± SD, three experiments): 0.6 ± 0.15 °C
ΔTm at 100 µM ([3]; compound 100 μM, Tm of compound group minus Tm of blank control, mean ± SD, three experiments): 0.85 ± 0.02 °C
ΔTm 200 μM ([3]; compound 200 μM, Tm of compound group minus Tm of blank control, mean ± SD, three experiments): 1.5 ± 0.01 °C
Tm of NS5B complexed with compound ([3]; in Figure 3, blank control Tm = 63.5 °C): 65.0 °C
ΔTm at 200 µM ([3]; read-out: ΔTm 200 μM, compound 200 μM, Tm of compound group minus Tm of blank control, mean ± SD, three experiments): 1.6 °C
EC50 ([4]; Huh-7.5.1, 50% effective concentration, mean ± SD): 3.2 ± 0.04 µM
inhibition at 10 µM ([4]; Huh-7.5.1, 72 h, inhibitory rate at 10 μM, 72 h, read-out: HCV Inhibition 10 μM): 78.1%
